Source: ChEMBL document CHEMBL5252578, “seco-Pregnane Glycosides from Australian Caustic Vine (Cynanchum viminale subsp. australe)” (J Nat Prod, 2023)
Activity calls are given as the source filed them. The calls are words filed in the database; no cut-off is given here.

Experiments:
[1] = molecular target: Cholinesterase (Equus caballus) (UniProt P81908); test: Inhibition of equine BuChE at 100 uM using […] as substrate incubated for 29 mins by Ellman's method relative to control
Sarcoptes scabiei [2] = test: Miticidal activity against Sarcoptes scabiei Larva assessed as effect on larval mortality at 100 uM measured upto 48 hrs by microscopic analysis; type: functional, organism-based
Sarcoptes scabiei [3] = test: Miticidal activity against Sarcoptes scabiei eggs assessed as effect on egg hatching at 100 uM measured upto 48 hrs by microscopic analysis; type: functional, organism-based
Sarcoptes scabiei [4] = test: Miticidal activity against Sarcoptes scabiei assessed as mortality rate at 100 uM measured upto 48 hrs by microscopic analysis; type: functional
HeLa = test: Cytotoxicity against human HeLa cells assessed as cell growth inhibition measured after 6 days by SRB assay; type: functional, cell-based; details: 144 h
HT-29 = test: Cytotoxicity against human HT-29 cells assessed as cell growth inhibition measured after 6 days by SRB assay; type: functional, cell-based; details: HT-29, 144 h
MM96L = test: Cytotoxicity against human MM96L cells assessed as cell growth inhibition measured after 6 days by SRB assay; type: functional, cell-based; details: 144 h
MCF7 = test: Cytotoxicity against human MCF7 cells assessed as cell growth inhibition measured after 6 days by SRB assay; type: functional, cell-based; details: MCF7, 144 h
NFF = test: Cytotoxicity against human NFF cells assessed as cell growth inhibition measured after 6 days by SRB assay; type: functional, cell-based; details: 144 h

Sequence of Cholinesterase (Equus caballus) (P81908 whole entry): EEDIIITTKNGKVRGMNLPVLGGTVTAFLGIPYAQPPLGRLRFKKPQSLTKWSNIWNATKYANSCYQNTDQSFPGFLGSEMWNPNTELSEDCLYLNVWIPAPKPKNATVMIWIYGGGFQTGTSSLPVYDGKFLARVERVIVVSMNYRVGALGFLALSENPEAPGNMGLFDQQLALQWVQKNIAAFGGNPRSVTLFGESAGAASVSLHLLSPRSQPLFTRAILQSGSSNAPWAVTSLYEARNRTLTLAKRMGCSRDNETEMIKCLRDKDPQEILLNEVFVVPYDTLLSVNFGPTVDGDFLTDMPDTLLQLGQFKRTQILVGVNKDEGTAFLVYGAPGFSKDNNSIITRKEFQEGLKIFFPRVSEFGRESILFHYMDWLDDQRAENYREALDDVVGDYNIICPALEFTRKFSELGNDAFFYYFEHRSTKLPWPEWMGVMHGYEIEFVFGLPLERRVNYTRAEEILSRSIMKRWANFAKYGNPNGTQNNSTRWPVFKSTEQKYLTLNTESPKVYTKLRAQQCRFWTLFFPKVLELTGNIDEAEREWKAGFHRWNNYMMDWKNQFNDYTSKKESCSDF

SMILES	inhibition [1] [%]	Activity (Sarcoptes scabiei [2])	Activity (Sarcoptes scabiei [3])	Activity (Sarcoptes scabiei [4])	IC50 (HeLa) [µM]	IC50 (HT-29) [µM]	IC50 (MM96L) [µM]	IC50 (MCF7) [µM]	IC50 (NFF) [µM]
CC(=O)O[C@H](C[C@H]1C(=O)CC=C2C[C@@H](O)CC[C@@]21C)[C@@]1(C)C(=O)CC[C@H]1C(C)=O	7.72	–	–	–	–	–	–	–	–
CO[C@H]1C[C@H](O[C@H]2[C@@H](OC)C[C@H](O[C@H]3CC[C@@]4(C)C(=CCC(=O)[C@@H]4C[C@@H](OC(C)=O)[C@@]4(C)C(=O)CC[C@H]4C(C)=O)C3)O[C@@H]2C)O[C@H](C)[C@H]1O	13.5	inactive	inactive	30%	–	–	–	–	–
CO[C@H]1C[C@H](O[C@H]2CC[C@@]3(C)C(=CCC(=O)[C@@H]3C[C@@H](OC(C)=O)[C@@]3(C)C(=O)CC[C@H]3C(C)=O)C2)O[C@H](C)[C@H]1O[C@H]1C[C@@H](OC)[C@H](O)[C@@H](C)O1	2.64	inactive	inactive	inactive	–	–	–	–	–
C[C@@]1([C@@H](C[C@H]2C(=O)CC=C3C[C@@H](O)CC[C@@]32C)OC(=O)c2ccccc2)C(=O)[C@@]2(C)CC[C@@H]1O2	14	–	–	–	> 10	> 10	> 10	> 10	> 10
